Results: US7960435B2, “Anti-cancer agents and androgen inhibition activity compound” (University of Maryland, Baltimore, priority 2006, dated 2011)
Where two headings read alike, the source gives them in different places.

Experiments:
androgen receptor (AR) = assay: AR protein expression down-regulation in LNCaP cells (Western blot); type: cell-based, human
Description: All five known ARDAs (FIG. 1) were evaluated for their ability to decrease AR protein expression in a dose dependent manner and dose response curves were generated to determine their EC50 values.
These compounds were further evaluated to determine their EC50 values (from dose response curves).
For immunoblot detection of the AR, LNCaP cells were cultured as described above in T25 flasks. Cells were treated with various concentrations of ARDAs and whole cell lysates were prepared using lysis buffer containing 0.1M Tris, 0.5% Triton X-100, and protease inhibitor. Protein content was determined using the Bradford Assay (Bio-Rad, Hercules, Calif., USA). Protein was subjected to SDS-PAGE (10% acrylamide) and transferred onto nitrocellulose membrane. The blots were blocked overnight in 5% nonfat milk in PBS-T buffer at 4° C. Monoclonal antibody was used against the AR (AR441; sc-7305; Santa Cruz Biotechnology, Santa Cruz, Calif.; 1:500 dilution) at room temperature for one hour. Membranes were then incubated with a goat anti-mouse IgG secondary antibody conjugated to horseradish peroxidase (Bio-Rad cat #170-6516; 1:2000 dilution) at room temperature for one hour. Blots were rinsed with PBS-T between each step and specific bands were visualized by enhanced chemiluminescence (ECL; Amersham Biosciences, Arlington Heights, Ill., USA). Equivalent loading of samples was determined by reprobing membranes with β-actin (Calbiochem, USA). Protein expression was normalized to β-actin.

LNCaP cells = assay: Cell growth inhibition (MTT colorimetric assay), LNCaP; type: cell-based, human; details: for GI50: LNCaP (mutant AR), MTT, means of three experiments, called IC50, read-out: Cytotoxicity GI50 (nM) LNCaP
Excerpt: (§1) Lead optimization of BTB01434 and further biological studies: BTB01434 (Maybridge) was used as a lead molecule to synthesize new molecules. Although this compound was not as potent as some of the others (cf. Table 4), it was chosen for its ease of modification. New compounds (6-23) were developed using the diaryl sulfonamide compound BTB01434 (FIG. 6) as a scaffold. […] Including new BTB01434 analogs, including diaryl sulfonamide analogs bearing various substituents on the phenyl rings (series A), aryl amide analogs (series B), and amine analogs (series C). These new compounds were evaluated for cell growth inhibition in two human prostate cancer cell lines, (LNCaP and PC-3) by MTT assay. Based on the structures and anti-prostate cancer activities of the new compounds, a structure-activity relationship (SAR) was formulated.
Androgen-dependent LNCaP cells were obtained from American Type Culture Collection (Rockville, Md., USA). Cells were maintained in RPMI 1640 medium supplemented with 10% fetal bovine serum (Atlanta Biologicals, Lawrenceville, Ga., USA) and 1% penicillin/streptomycin. Cells were grown as a monolayer in T75 or T150 tissue culture flasks in a humidified incubator (5% CO2, 95% air) at 37° C.
(§2) LNCaP cells were seeded in 24 well plates (Corning Costar) at a density of 2×10^4 cells per well per 1 mL of medium. Cell were allowed to adhere to the plate for 24 hours and then treated with different concentrations of ARDAs dissolved in DMSO. Cells were treated for five days with renewal of ARDA and media on day 3. On the fifth day, medium was renewed and 100 μL of MTT (3-(4,5-dimethylthiazol-2-yl)-2,5-diphenyl-2H-tetrazolium bromide from Sigma) solution (0.5 mg MTT/mL of medium) was added to the medium such that the ratio of MTT:medium was 1:10. The cells were incubated with MTT for 2 hours. The medium was then aspirated and 500 μL of DMSO was added to solubilize the violet MTT-formazan product. The absorbance at 560 nm was measured by spectrophotometry (Victor 1420 multilabel counted, Wallac). For each concentration of ARDA there were triplicate wells in each independent experiment. IC50 values were calculated by nonlinear regression analysis using GraphPad Prism software.

PC-3 cells = assay: Cell growth inhibition (MTT assay), PC-3; type: cell-based, human; details: PC-3 (AR null), means of three experiments, called IC50, read-out: Cytotoxicity GI50 (nM) PC-3
Excerpt: as §1
Inhibition of prostate cancer cell proliferation and SAR: The exemplary compounds were then tested for their ability to inhibit cell viability in both the LNCaP (mutant AR) and PC-3 (AR null) cell lines (Table 5).
as §2

wild-type AR = biological target: T1, wild-type AR (Homo sapiens, UniProt P10275); assay: Competitive androgen receptor binding with [3H]-R1881 in PC-3-AR cells; details: for reduction of [3H]-R1881 binding: PC-3-AR cells
T1 construct: expressed in transfected cells; host or cells: PC-3 (stably transfected, PC-3-AR)
T1 sequence (P10275 1-920): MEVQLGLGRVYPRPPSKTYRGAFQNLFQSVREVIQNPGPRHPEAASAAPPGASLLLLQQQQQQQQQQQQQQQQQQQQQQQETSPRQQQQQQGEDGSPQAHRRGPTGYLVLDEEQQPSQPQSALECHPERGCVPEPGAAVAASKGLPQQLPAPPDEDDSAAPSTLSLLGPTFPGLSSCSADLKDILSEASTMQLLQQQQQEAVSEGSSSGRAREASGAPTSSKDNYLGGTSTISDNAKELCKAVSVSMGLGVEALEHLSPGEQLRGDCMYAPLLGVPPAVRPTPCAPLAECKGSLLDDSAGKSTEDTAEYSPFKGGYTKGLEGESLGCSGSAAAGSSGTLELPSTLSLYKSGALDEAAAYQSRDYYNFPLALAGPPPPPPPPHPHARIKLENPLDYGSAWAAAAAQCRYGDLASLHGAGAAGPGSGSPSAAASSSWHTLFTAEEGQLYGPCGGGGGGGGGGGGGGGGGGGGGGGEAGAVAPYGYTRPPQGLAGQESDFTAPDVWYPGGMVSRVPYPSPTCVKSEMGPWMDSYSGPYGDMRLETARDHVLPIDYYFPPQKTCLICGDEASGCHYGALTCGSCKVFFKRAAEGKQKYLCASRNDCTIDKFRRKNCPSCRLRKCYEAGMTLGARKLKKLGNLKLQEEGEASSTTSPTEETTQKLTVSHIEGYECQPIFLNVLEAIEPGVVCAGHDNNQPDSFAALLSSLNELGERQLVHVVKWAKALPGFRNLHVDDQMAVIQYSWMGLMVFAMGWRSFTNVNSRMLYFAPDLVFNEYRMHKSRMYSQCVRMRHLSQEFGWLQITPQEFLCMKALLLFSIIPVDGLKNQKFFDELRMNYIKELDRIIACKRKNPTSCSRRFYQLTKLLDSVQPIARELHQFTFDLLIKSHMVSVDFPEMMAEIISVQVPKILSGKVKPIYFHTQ
Description: In both cell lines, compounds 9 and 11 were able to effectively compete with labeled R1881 in a dose-dependent fashion (FIG. 11). In PC-3-AR cells compound II reduced [^3H]-R1881 binding by 65% and 80% at 10 μM and 20 μM, respectively. […] Compound 9 reduced [^3H]-R1881 binding by 50% and 65% at 10 μM and 20 μM, respectively, and was equipotent in both cell lines.
(§3) These assays were performed as previously described.^10

[1] = test system: AR-mediated transcription (LNCaP-AR); assay: Luciferase transactivation assay in LNCaP cells transfected with ARR2-Luc; type: cell-based, human; details: for effect on luciferase activity, compound alone: without DHT
Description: FIG. 12. […] Cells in steroid-free medium were treated with vehicle, or increasing concentrations of either 9 or 11 with and without 5 nM DHT for 18 h. Cells were then assayed for luciferase activity using a know assay.^10
To determine if the compounds act as AR agonists or antagonists, androgen regulated transcriptional activation studies were performed in LNCaP cells transiently transfected with the probasin luciferase reported construct ARR2-Luc.
as §3

[2] = AR down-regulation, LNCaP cells (Table 5), read-out: ARDA EC50
[3] = decrease of AR protein expression, LNCaP cells, training set ARDAs (Table 1), read-out: EC50 values

SMILES: Cc1ccc(S(=O)(=O)Nc2ccc(C)cc2[N+](=O)[O-])cc1 [BTB01434, reference compound]
- EC50 (androgen receptor (AR); [2]): 76 µM
- EC50 (androgen receptor (AR); LNCaP cells, database hits (Table 4), read-out: EC50 (μM), ability to down-regulate AR protein expression): 76 µM
- GI50 (LNCaP cells; Homo sapiens, LNCaP): 39800 nM
- IC50 (LNCaP cells; Homo sapiens, LNCaP cells (Table 4), read-out: IC50 (μM), effect on LNCaP cell viability): 39.8 µM
- GI50 (PC-3 cells; Homo sapiens): 43700 nM

SMILES: Cc1ccc(S(=O)(=O)Nc2ccccc2[N+](=O)[O-])cc1 [Compound 6, [(4-Methylphenyl)sulfonyl](2-nitrophenyl)amine]
- EC50 (androgen receptor (AR); [2]): > 150 µM
- GI50 (LNCaP cells; Homo sapiens, LNCaP): 83 nM
- GI50 (PC-3 cells; Homo sapiens): 50100 nM

SMILES: Cc1ccc(NS(=O)(=O)c2ccccc2)c([N+](=O)[O-])c1 [Compound 8, (4-Methyl-2-nitrophenyl)(phenylsulfonyl)amine]
- GI50 (LNCaP cells; Homo sapiens, LNCaP): 2.95 nM
- GI50 (PC-3 cells; Homo sapiens): 60200 nM

SMILES: Cc1ccc(NS(=O)(=O)c2ccccc2)c(C(=O)O)c1 [Compound 10, 5-Methyl-2-[(phenylsulfonyl)amino]benzoic acid]
- GI50 (LNCaP cells; Homo sapiens, LNCaP): 18.2 nM

SMILES: Cc1ccc(NS(=O)(=O)c2ccc(C)cc2)cc1 [Compound 11, (4-Methylphenyl)[(4-methylphenyl)sulfonyl]amine]
- GI50 (LNCaP cells; Homo sapiens, LNCaP): 1.45 nM
- GI50 (PC-3 cells; Homo sapiens): 30200 nM
- greater inhibition of [3H]-R1881 binding to wild-type AR than to mutated receptor (wild-type AR; 10 μM and above): approximately 20%
- reduction of [3H]-R1881 binding (wild-type AR; 10 μM): 65%
- reduction of [3H]-R1881 binding (wild-type AR; 20 μM): 80%
- effect on luciferase activity, compound alone ([1]; 0.1 μM): no effect
- reduction of luciferase expression in the presence of DHT ([1]; 10 μM, with 5 nM DHT): 80%
- effect on luciferase activity, compound alone ([1]; 10 μM): no effect

SMILES: Cc1ccc(NS(=O)(=O)c2ccc(F)cc2)c(C(=O)O)c1 [Compound 12, {[(4-fluorophenyl)sulfonyl]amino}-5-methylbenzoicacid]
- GI50 (LNCaP cells): 10700 nM
- GI50 (PC-3 cells): > 100000 nM

SMILES: Cc1ccc(C#N)c(NS(=O)(=O)c2ccc(F)cc2)c1 [Compound 13, 2-{[(4-fluorophenyl)sulfonyl]amino}-4-methylbenzenecarbonitrile]
- GI50 (LNCaP cells; Homo sapiens, LNCaP): 30200 nM
- GI50 (PC-3 cells; Homo sapiens): ~100000 nM

SMILES: Cc1ccc(-c2nnn[nH]2)c(NS(=O)(=O)c2ccc(F)cc2)c1 [Compound 14, (2-(1H-1,2,3,4-tetrazole-5-yl)-5-methylphenyl)[(4-fluorophenyl)sulfonyl]amine]
- GI50 (LNCaP cells; Homo sapiens, LNCaP): > 100000 nM
- GI50 (PC-3 cells; Homo sapiens): > 100000 nM

SMILES: Cc1ccc(NS(=O)(=O)c2ccccc2)cc1 [Compound 15, (4-methylphenyl)(phenylsulfonyl)amine]
- GI50 (LNCaP cells; Homo sapiens, LNCaP): 21300 nM
- GI50 (PC-3 cells; Homo sapiens): 13800 nM

SMILES: Cc1ccc(S(=O)(=O)Nc2ccccc2)cc1 [Compound 16, [(4-Methylphenyl)sulfonyl]phenylamine]
- GI50 (LNCaP cells; Homo sapiens, LNCaP): 24000 nM
- GI50 (PC-3 cells; Homo sapiens): 38900 nM

SMILES: O=S(=O)(Nc1ccccc1)c1ccccc1 [Compound 17, Phenyl(phenylsulfonyl)amine]
- GI50 (LNCaP cells; Homo sapiens, LNCaP): 53500 nM
- GI50 (PC-3 cells; Homo sapiens): > 100000 nM

SMILES: Cc1ccc(N(C)S(=O)(=O)c2ccc(C)cc2)cc1 [Compound 18, Methyl(4-methylphenyl)[(4-methylphenyl)sulfonyl]amine]
- GI50 (LNCaP cells; Homo sapiens, LNCaP): 89200 nM
- GI50 (PC-3 cells; Homo sapiens): 44700 nM

SMILES: Cc1ccc(NC(=O)c2ccc(C)cc2)cc1 [Compound 19, (4-Methylphenyl)-N-(4-methylphenyl)carboxamide]
- GI50 (LNCaP cells; Homo sapiens, LNCaP): 55000 nM
- GI50 (PC-3 cells; Homo sapiens): 26900 nM

SMILES: Cc1ccc(CNc2ccc(C)cc2)cc1 [Compound 21, (4-Methylphenyl) [(4-methylphenyl)methyl]amine]
- GI50 (LNCaP cells; Homo sapiens, LNCaP): 19000 nM
- GI50 (PC-3 cells; Homo sapiens): 29500 nM

SMILES: Cc1ccc(NCc2ccccc2)cc1 [Compound 23, (4-Methylphenyl)benzylamine]
- GI50 (LNCaP cells; Homo sapiens, LNCaP): > 100000 nM
- GI50 (PC-3 cells; Homo sapiens): 52400 nM

SMILES: COc1cc(/C=C/C(=O)CC(=O)/C=C/c2ccc(O)c(OC)c2)ccc1O [Curcumin (4), curcumin]
- EC50 (androgen receptor (AR); [3]): 35 µM

SMILES: C[C@]12CCC(=O)C[C@@H]1CC[C@@H]1[C@@H]2CC[C@]2(C)[C@@H](O)CC[C@@H]12 [DHT, dihydrotestosterone, reference compound]
- stimulation of luciferase activity ([1]; 5 nM): approximately 200 fold

SMILES: O=C(O)c1ccccc1Nc1cccc(C(F)(F)F)c1 [Flufenamic acid (3), flufenamic acid]
- EC50 (androgen receptor (AR); [3]): ~200 µM
